{
  "source": "patent US20110288036A1",
  "about": "“Methods for Treating or Preventing Vascular Graft Failure” (priority 2010, published 2011)",
  "key": {"MKK4": {"target": "T1, MKK4 (Mus musculus, UniProt P47809)", "T1 construct": "purchased Millipore (KinaseProfiler service)", "T1 sequence (P47809 whole entry)": "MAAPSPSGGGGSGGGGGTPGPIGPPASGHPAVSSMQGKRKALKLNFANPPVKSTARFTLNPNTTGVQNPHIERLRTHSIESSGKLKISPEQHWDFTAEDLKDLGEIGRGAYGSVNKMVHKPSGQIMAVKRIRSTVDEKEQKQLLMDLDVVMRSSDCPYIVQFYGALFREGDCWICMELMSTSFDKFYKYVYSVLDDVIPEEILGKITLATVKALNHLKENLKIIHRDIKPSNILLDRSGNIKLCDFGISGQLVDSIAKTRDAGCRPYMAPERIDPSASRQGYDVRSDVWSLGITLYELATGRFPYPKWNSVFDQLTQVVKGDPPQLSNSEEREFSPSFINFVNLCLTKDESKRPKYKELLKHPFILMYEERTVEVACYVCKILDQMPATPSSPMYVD", "assay": "MKK4 radiometric kinase assay", "type": "biochemical", "settings": "peptide 100 μM", "excerpt": "(§1) A commercial radiometric assay service was used to test the specificity and potency of MMI-0100 ([…]; SEQ ID NO: 1) by measuring its half maximal inhibitory concentrations (IC50). This quantitative assay measures how much MK2 inhibitor (MMI-0100; […] (SEQ ID NO: 1)) is needed to inhibit 50% of a given biological process or component of a process (i.e., an enzyme, cell, or cell receptor). Specifically, in these assays, a positively charged substrate is phosphorylated with a radiolabeled phosphate group from an ATP if the kinase is not inhibited by an inhibitor peptide. The positively charged substrate then is attracted to a negatively charged filter membrane, quantified with a scintillation counter, and compared to a 100% activity control. ATP concentrations within 15 μM of the apparent Km for ATP were chosen since an ATP concentration near the Km may allow for the kinases to have the same relative amount of phosphorylation activity. The individual conditions for each radiometric assay are as follows.\nThe reaction was initiated by the addition of the MgATP. After incubation for 40 minutes at room temperature, 5 μl of the incubation mix was used to initiate the JNK radiometric assay described above.\nIC50 values for inhibitor peptides were determined using Millipore's IC50 Profiler Express service. The IC50 value was estimated from a 10-point curve of one-half log dilutions. […]"}, "JNK": {"system": "JNK", "assay": "JNK radiometric kinase assay", "type": "biochemical", "settings": "peptide 100 μM", "excerpt": "as §1, with “The individual conditions for each radiometric assay are as follows.” left out\nFor the JNK (c-Jun N-terminal Kinase) radiometric assay, 5-10 mU of JNK was incubated with 50 mM Tris pH 7.5, 0.1 mM EGTA, 0.1% b-mercaptoethanol, 3 μM ATF2 (a substrate for JNK), 10 mM MgAcetate, and 10 μM of [y-^33P-ATP] in the final reaction volume of 25 μl. […] The washed P30 filtermat was dried and its radioactivity was measured by scintillation counter.\n(§2) IC50 values for inhibitor peptides were determined using Millipore's IC50 Profiler Express service. […]"}, "MK2": {"target": "T2, MK2 (Homo sapiens, UniProt P49137)", "T2 construct": "purchased Millipore (IC50 Profiler Express / KinaseProfiler service)", "T2 sequence (P49137 whole entry, species assumed)": "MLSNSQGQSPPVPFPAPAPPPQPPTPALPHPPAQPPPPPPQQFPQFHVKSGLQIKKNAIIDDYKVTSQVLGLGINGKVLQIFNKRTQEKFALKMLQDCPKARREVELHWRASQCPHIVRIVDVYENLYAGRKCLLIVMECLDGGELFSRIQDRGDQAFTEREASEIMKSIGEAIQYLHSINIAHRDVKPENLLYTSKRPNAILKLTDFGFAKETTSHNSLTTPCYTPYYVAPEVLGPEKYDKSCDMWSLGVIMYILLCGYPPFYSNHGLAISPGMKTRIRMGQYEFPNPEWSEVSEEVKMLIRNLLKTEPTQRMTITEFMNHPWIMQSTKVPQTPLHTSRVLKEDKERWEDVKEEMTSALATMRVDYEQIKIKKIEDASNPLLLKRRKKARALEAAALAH", "assay": "MK2 radiometric kinase assay", "type": "biochemical", "excerpt": "as §1, with “The individual conditions for each radiometric assay are as follows.” left out\nFor the MK2 radiometric assay, 5-10 mU of MK2 was incubated with 50 mM Na b-glycerophosphate pH 7.5, 0.1 mM EGTA, 30 μM KKLNRTLSVA (SEQ ID NO: 34; a substrate peptide for MK2), 10 mM MgAcetate, and 10 μM of [y-^33P-ATP] in a final reaction volume of 25 μl. […] The washed P30 filtermat was dried and its radioactivity was measured by scintillation counter.\nas §2"}, "[1]": {"system": "immortalized human pleural mesothelial cells (ATCC CRL-9444)", "assay": "IL-6 ELISA in TNF-α-stimulated mesothelial cells", "type": "cell-based", "experimental": "Expression of inflammatory cytokines was induced by applying 1 or 10 ng/ml of TNF-α to cultured mesothelial cells. Briefly, immortalized human pleural mesothelial cells (ATCC CRL-9444) were grown in Medium199 with Earle's BSS, 0.75 mM L-glutamine (Mediatech Inc., Manassas, Va.), 1.25 g/l sodium bicarbonate (Sigma), 3.3 nM epidermal growth factor (EGF) (MBL International, Woburn, Mass.), 40 nM hydrocortisone (Sigma), 870 nM insulin (MBL International), 20 mM HEPES (Sigma), trace elements mixture B (Mediatech Inc., Waltham, Mass.), 10% fetal bovine serum (FBS) (Hyclone), and 1% penicillin/streptomycin (Mediatech Inc., Waltham, Mass.). […] Human mesothelial cells were treated with two different concentrations (1 and 10 ng/mL) of TNF-α for 2, 6, 12, and 24 hours (data not shown). […] Without TNF-α stimulation, mesothelial cells made negligible amounts of IL-6. […] In subsequent experiments designed to determine whether the MMI-0100 peptide ([…]; SEQ ID NO: 1) could reduce TNF-α induced IL-6 expression, both 1 and 10 ng/mL of TNF-α were selected as stimuli. 10 ng/mL of TNF-α is regarded as more physiologically relevant for mesothelial cells.\nPrior to cytokine and/or inhibitor treatment, cells were allowed to acclimate in serum-free media consisting of only Medium199 with Earle's BSS, 0.75 mM L-glutamine, 1.25 g/l sodium bicarbonate, 20 mM HEPES, trace elements mixture B (Mediatech Inc., Waltham, Mass.), and 1% penicillin/streptomycin (Mediatech Inc., Waltham, Mass.) for 24 hours. […] Average concentration of IL-6 (pg/ml per 10^5 cells) at each time was determined by cytokine-specific ELISA."}},
  "data": [
    {"sequence": "YARAAARQARAKALARQLGVAA [MMI-0100]", "values": [
      {"measurement": "Percent Activity, MKK4", "setting": "MKK4", "result": 90, "unit": "%"},
      {"measurement": "Percent Activity, JNK", "setting": "JNK", "result": 92, "unit": "%"},
      {"measurement": "inhibition of MK2 activity", "setting": "MK2; concentration used for specificity profiling (Table 2)", "result": "> 95", "unit": "%"},
      {"measurement": "Percent Activity, MK2", "setting": "MK2; peptide 100 μM", "result": "<5", "unit": "%"},
      {"measurement": "IL-6 expression", "setting": "[1]; TNF-α 1 ng/mL, MMI-0100 1000 or 3000 μM, 6, 12, 24 hours", "result": "reduced IL-6 expression to the levels at or below the untreated baseline"},
      {"measurement": "IL-6 expression", "setting": "[1]; TNF-α 10 ng/mL, 3000 μM, every time point", "result": "reduced IL-6 expression to the levels of the untreated baseline"},
      {"measurement": "IL-6 expression", "setting": "[1]; TNF-α 10 ng/mL, 6, 12, 24 hours", "result": "still effective in reducing IL-6 expression triggered by TNF-α"}
    ]}
  ]
}
